The target of test [1] is T1, carboanhydrase of the subtype Va of mice (mCA Va) (Mus musculus, UniProt P23589).
T1 construct: made in house; host or cells: Escherichia coli BL 21 (DE3)
T1 sequence (P23589 30-299): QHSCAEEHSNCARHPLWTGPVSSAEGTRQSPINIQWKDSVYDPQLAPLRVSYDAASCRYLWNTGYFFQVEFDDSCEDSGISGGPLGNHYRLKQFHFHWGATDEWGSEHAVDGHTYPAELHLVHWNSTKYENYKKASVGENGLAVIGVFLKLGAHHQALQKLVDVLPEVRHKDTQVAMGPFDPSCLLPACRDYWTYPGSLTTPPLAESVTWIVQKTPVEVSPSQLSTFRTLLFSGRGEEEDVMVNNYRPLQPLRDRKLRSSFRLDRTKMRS
Description: 4-nitrophenylacetate-esterase enzyme activity test, mCA Va used at 120 nM. The class given is biochemical. The settings on record: mCA Va obtained by biotechnological processes; enzyme concentration 120 nM; read-out: inhibitory action on carboanhydrase of the subtype Va of mice (IC50).
Description: In a departure from the test procedure described by Scozzafava et al, in this case the enzyme mCA Va was used in a concentration of 120 nM. The mCA Va was obtained in known manner by the method described by H. R. Heck et al., Journal of Biological Chemistry 269 (1994) 24742-24746. To this end, the strain of bacteria Escherichia coli BL 21 (DE3) was used, which was used with a plasmid vector which contained the sequence coding for mCA Va under the control of the T7 promoter which can be induced by isopropyl-β-D-thiogalactopyranoside (IPTG). The bacterial culture was inoculated at 37° C. with stirring into a Luria-Bertani liquid medium containing ampicillin (100 μg/ml) and its growth was monitored by spectrophotometry at 600 nm. Once the bacterial culture had entered the exponential growth phase, IPTG was added in a final concentration of 1 mmol/liter. After 3 hours incubation time (37° C. with stirring), the bacterial culture was centrifuged at 7000×g for 15 minutes, and the supernatant was discarded. The resulting pellet was taken up in 0.1 vol twice-distilled water, and lysozyme (100 μg/ml) was added thereto. The cell lysis took place under ultrasound treatment. […] After each ultrasound pulse, the absorption of the samples was determined at 600 nm, for which each 100 μl of a-sample was diluted with 900 μl twice-distilled water. […]

Test [2] has as its system of the 3T3-F442A cell line. Description: Test model according to Hazen et al.: formation of acid-soluble metabolic products of the citric acid cycle. Type of test: cell-based. Conditions: Adipocyte; rat adipocytes of the 3T3-F442A cell line; read-out: inhibitory effect on the formation of acid-soluble metabolic products of the citric acid cycle (IC50). The text has this:
In a second embodiment of the method according to the invention, compounds suitable for the treatment and/or prophylaxis of obesity can be discovered by selecting those compounds which are capable of reducing the amount of metabolic products formed in the citric acid cycle of isolated living mammalian cells or of lipidic secondary products of the citric acid cycle. […] Citrate is preferred. Furthermore, lipidic secondary products of the citric acid cycle, such as free fatty acids, are suitable as metabolic products. Lastly, in this second embodiment, the ability of the test compounds to inhibit the activity of at least one carboanhydrase occurring in mammals is also determined, although the test model used is set up differently from the first embodiment mentioned. The process of the second embodiment is based on the principle of determining in known manner the uptake of radioactivity from substrates of the citric acid cycle labeled with the ^14C-isotope into metabolic intermediate products or secondary products of the citric acid cycle of isolated, living mammalian cells and comparing the results obtained with the results obtained under otherwise identical conditions, but under the influence of CA-inhibitory compounds. Isolated living cells of rodents such as rats, mice or guinea-pigs, or of man, are preferably used in this variant of the method. Human cells are preferred. […]

As to `CC1(C)O[C@@H]2[C@@H](CO[C@@]3(COS(N)(=O)=O)OC(C)(C)O[C@@H]23)O1` [topiramate], the figures for the IC50 in test [1] and in test [2] were 0.074 µM and 0.348 µM, respectively.

The values are drawn from patent US7282325B2, “Method of preparing pharmaceutical compositions” (Solvay Pharmaceuticals GmbH, priority 2000, dated 2007).
